From patent US20090074672A1, “Tumor Boundary Imaging” (SRI International, priority 2007, published 2009)
Where no end group is shown, it is not given here.

Test system: fibrin gel
Test: TG substrate viability: cross-linking into fibrin gel
Type: biochemical
Details: in the presence of Ca2+
Method: TG Substrate Viability Assays. Viability was tested by: (1) cross-linking into fibrin gel, and (2) reacting with fibrinogen in the presence of Guinea pig liver TG. […] In the presence of Ca2+, cross-linked fibrin clots were formed.

Substance: peptide: TG substrate peptide NQEQVSP (SEQ ID NO:01) conjugated to FITC or HiLyte Fluor 750 via N-hydroxysuccinimide chemistry (also: FITC or HiLyte Fluor 750 conjugated via NHS chemistry)
- cross-linking into fibrin clot (fluorescence intensity): crosslinked into the fibrin clot
